Reference: US11925690B2, “Bifunctional molecules for targeting Rpn11” (AMPHISTA THERAPEUTICS LTD, priority 2018, dated 2024)

Tests used:
Format in all cases: cell-based
Brd4 (L) [1] = target: T1, Brd4 (L) (Homo sapiens, UniProt O60885); assay: Concentration-dependent BET degradation, immunoblot; conditions: 4 h, 1 nM-10 μM
T1 construct: endogenous in cells; host or cells: HEK293 (CRL-1573), HeLa (CCL-2)
Procedure: (§1) Immunoblotting. Proteins were separated by SDS-PAGE on NuPage 4-12% Bis-Tris gels, followed by transfer to Amersham Protran 0.45 NC nitrocellulose membrane (GE Healthcare) using wet transfer. Membranes were blocked using 5% w/v milk in Tris-buffered saline (TBS) with 0.1% Tween-20. Blots were probed (overnight at 4 °C) using anti-Brd2 (Abcam ab139690, 1:2,000 dilution), anti-Brd3 (Abcam ab50818, 1:500 dilution), and anti-Brd4 (Abcam ab128874, 1:1,000 dilution) primary antibodies, as appropriate. The next day, blots were washed with TBST and incubated (1 h at Room temperature) with anti-Tubulin hFAB-rhodamine (BioRad, 12004166) primary antibody, and either anti-rabbit IRDye 800CW (Licor 1:1,000 dilution) or anti-mouse IRDye 800CW (Licor 1:1,000 dilution) secondary antibody. Blots were developed using a Bio-Rad ChemiDoc MP Imaging System, and band quantification was performed using Image Studio software (LiCor). Band intensities were normalized to the tubulin loading control and reported as % of the average 0.1% DMSO vehicle intensity. Degradation data was plotted and analysed using Prism (Graphpad, version 8).
(§2) HeLa (5×10^5) and HEK293 (1×10^6) cells were seeded in standard 6-well plates (2 mL medium) overnight before treatment with compounds at the desired concentration (1 nM-10 μM), with a final DMSO concentration of 0.1% v/v. After 4 h treatment time, cells were washed with DPBS (Gibco) and lysed using 85 μL RIPA buffer (Sigma-Aldrich) supplemented with cOmplete Mini EDTA-free protease inhibitor cocktail (Roche) and benzonase. Lysates were clarified by centrifugation (20000 g, 10 min, 4° C.) and the total protein content of the supernatant was quantified using a Bradford colorimetric assay. Samples were prepared using equal amounts of total protein and LDS sample buffer (Invitrogen). Band intensities were normalized to the tubulin loading control and reported as % of the average 0.1% DMSO vehicle intensity. Degradation data was plotted and analysed using Prism (Graphpad, version 8).
(§3) MZ1 and 11JQ17 were used at 1 μM for positive and negative controls, respectively. […] For the table, Dmax: +(Dmax≤25%); ++(26%≤Dmax≤50%); +++(51%≤Dmax≤70%); ++++(71%≤DC50: A (DC50≤50 nM); B (51 nM≤DC50≤500 nM); C (501 nM≤DC50).

Brd4 (S) [2] = target: T2, Brd4 (S) (Homo sapiens, UniProt O60885); assay: as above; conditions: 4 h, 1 nM-10 μM
T2 construct: endogenous in cells; host or cells: HEK293 (CRL-1573), HeLa (CCL-2)
Procedure: as §1, §2, §3

Brd2 [3] = target: T3, Brd2 (Homo sapiens, UniProt P25440); assay: Time-dependent BET degradation, immunoblot; conditions: HEK293, Brd2, 1 μM; for Dmax at 1 µM: 0-24 hrs; for Abs. T1/2: time to deplete 50% of the protein relative to DMSO; for T1/2: time to reach 50% of the Dmax
Procedure: as §1
as §2, with “HEK293” for “HeLa (5×10^5) and HEK293”, “(0.5×10^6)” for “(1×10^6)”, “1 μM concentration,” for “the desired concentration (1 nM-10 μM),”, “incubation for the desired time (0-24 hrs),” for “4 h treatment time,”, “complete” for “cOmplete”
(§4) MZ1 and 11JQ17 were used at 1 μM (4 h) for positive and negative controls, respectively. […]

Brd3 [4] = target: T4, Brd3 (Homo sapiens, UniProt Q15059); assay: Time-dependent BET degradation, immunoblot; conditions: HEK293, Brd3, 1 μM; for Dmax at 1 µM: 0-24 hrs; for Abs. T1/2: time to deplete 50% of the protein relative to DMSO; for T1/2: time to reach 50% of the Dmax
Procedure: as §1
as §2, with “HEK293” for “HeLa (5×10^5) and HEK293”, “(0.5×10^6)” for “(1×10^6)”, “1 μM concentration,” for “the desired concentration (1 nM-10 μM),”, “incubation for the desired time (0-24 hrs),” for “4 h treatment time,”, “complete” for “cOmplete”
as §4

Brd4 (L) [5] = target: T1, Brd4 (L); assay: Time-dependent BET degradation, immunoblot; set-up: Dmax: dose or concentration left out as unconfirmed; conditions: HEK293, Brd4 (L); for Dmax: 0-24 hrs; for Abs. T1/2 / T1/2: 1 μM; for Abs. T1/2: time to deplete 50% of the protein relative to DMSO; for T1/2: time to reach 50% of the Dmax
Procedure: as §1
as §2, with “HEK293” for “HeLa (5×10^5) and HEK293”, “(0.5×10^6)” for “(1×10^6)”, “1 μM concentration,” for “the desired concentration (1 nM-10 μM),”, “incubation for the desired time (0-24 hrs),” for “4 h treatment time,”, “complete” for “cOmplete”
as §4

Brd4 (S) [6] = target: T2, Brd4 (S); assay: Time-dependent BET degradation, immunoblot; set-up: Dmax: dose or concentration left out as unconfirmed; conditions: HEK293, Brd4 (S); for Dmax: 0-24 hrs; for Abs. T1/2 / T1/2: 1 μM; for Abs. T1/2: time to deplete 50% of the protein relative to DMSO; for T1/2: time to reach 50% of the Dmax
Procedure: as §1
as §2, with “HEK293” for “HeLa (5×10^5) and HEK293”, “(0.5×10^6)” for “(1×10^6)”, “1 μM concentration,” for “the desired concentration (1 nM-10 μM),”, “incubation for the desired time (0-24 hrs),” for “4 h treatment time,”, “complete” for “cOmplete”
as §4

Brd2 [7] = target: T3, Brd2; assay: Concentration-dependent BET degradation, immunoblot; set-up: endogenous in cells; host or cells: HEK293 (CRL-1573), HeLa (CCL-2); conditions: 1 nM-10 μM
Procedure: as §1, §2, §3

Brd3 [8] = target: T4, Brd3; assay: as above; set-up: endogenous in cells; host or cells: HEK293 (CRL-1573), HeLa (CCL-2); conditions: 1 nM-10 μM
Procedure: as §1, §2, §3

T4 sequence (Q15059 whole entry): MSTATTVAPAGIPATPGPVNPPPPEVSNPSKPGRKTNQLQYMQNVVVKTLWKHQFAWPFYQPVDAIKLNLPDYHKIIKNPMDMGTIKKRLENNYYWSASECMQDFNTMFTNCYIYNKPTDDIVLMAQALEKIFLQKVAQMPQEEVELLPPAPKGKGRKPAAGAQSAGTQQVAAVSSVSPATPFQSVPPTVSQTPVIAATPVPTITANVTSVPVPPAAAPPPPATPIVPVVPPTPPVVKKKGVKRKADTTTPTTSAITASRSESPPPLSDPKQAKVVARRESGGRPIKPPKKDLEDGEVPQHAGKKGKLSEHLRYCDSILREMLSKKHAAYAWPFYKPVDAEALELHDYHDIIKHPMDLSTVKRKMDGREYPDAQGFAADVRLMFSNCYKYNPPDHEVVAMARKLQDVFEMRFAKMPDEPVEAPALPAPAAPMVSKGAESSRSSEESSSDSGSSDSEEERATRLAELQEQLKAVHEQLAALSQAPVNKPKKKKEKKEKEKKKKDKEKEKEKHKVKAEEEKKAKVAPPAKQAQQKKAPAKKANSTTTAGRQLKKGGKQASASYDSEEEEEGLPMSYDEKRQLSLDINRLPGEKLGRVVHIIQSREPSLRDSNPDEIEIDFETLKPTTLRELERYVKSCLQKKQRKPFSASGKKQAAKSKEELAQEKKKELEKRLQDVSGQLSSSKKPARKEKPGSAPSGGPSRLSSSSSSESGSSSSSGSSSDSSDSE
T3 sequence (P25440 whole entry): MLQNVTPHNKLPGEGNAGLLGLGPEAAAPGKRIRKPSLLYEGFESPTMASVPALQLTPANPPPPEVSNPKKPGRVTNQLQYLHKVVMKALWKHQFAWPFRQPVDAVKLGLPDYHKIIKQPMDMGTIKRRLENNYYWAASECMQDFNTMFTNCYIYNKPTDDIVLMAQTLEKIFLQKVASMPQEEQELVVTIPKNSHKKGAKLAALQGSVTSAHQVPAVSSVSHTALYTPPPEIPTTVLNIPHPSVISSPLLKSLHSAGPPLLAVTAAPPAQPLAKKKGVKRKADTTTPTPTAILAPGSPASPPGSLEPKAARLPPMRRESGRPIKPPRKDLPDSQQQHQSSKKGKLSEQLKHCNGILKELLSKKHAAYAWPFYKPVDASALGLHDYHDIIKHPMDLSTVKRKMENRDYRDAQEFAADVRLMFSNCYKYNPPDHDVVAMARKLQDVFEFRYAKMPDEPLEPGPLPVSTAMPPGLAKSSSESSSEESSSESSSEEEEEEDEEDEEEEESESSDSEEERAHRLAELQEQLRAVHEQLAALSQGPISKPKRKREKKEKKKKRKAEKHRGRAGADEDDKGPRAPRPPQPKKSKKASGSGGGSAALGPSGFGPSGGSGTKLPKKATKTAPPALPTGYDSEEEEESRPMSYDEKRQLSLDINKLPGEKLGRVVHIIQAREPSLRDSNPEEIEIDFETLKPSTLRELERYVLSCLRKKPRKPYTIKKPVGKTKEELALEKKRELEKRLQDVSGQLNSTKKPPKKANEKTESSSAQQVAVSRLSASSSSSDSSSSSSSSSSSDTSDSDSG

Row | SMILES | DC50 (Brd4 (L) [1]; HEK293, Brd4 (L)) [µM] | Dmax (Brd4 (L) [1]; HEK293, Brd4 (L)) [%] | DC50 (Brd4 (L) [1]; HeLa) [µM] | Dmax (Brd4 (L) [1]; HeLa) [%] | DC50 (Brd4 (S) [2]; HEK293, Brd4 (S)) [µM] | Dmax (Brd4 (S) [2]; HEK293, Brd4 (S)) [%] | DC50 (Brd4 (S) [2]; HeLa) [µM] | Dmax (Brd4 (S) [2]; HeLa) [%] | Dmax at 1 µM (Brd2 [3]) [%] | Abs. T1/2 (Brd2 [3]) [h] | T1/2 (Brd2 [3]) [h] | Dmax at 1 µM (Brd3 [4]) [%] | Abs. T1/2 (Brd3 [4]) [h] | T1/2 (Brd3 [4]) [h] | Dmax (Brd4 (L) [5]) [%] | Abs. T1/2 (Brd4 (L) [5]) [h] | T1/2 (Brd4 (L) [5]) [h] | Dmax (Brd4 (S) [6]) [%] | Abs. T1/2 (Brd4 (S) [6]) [h] | T1/2 (Brd4 (S) [6]) [h] | other results
1 | Cc1sc2c(c1C)C(c1ccc(Cl)cc1)=N[C@@H](CC(=O)NCCCCNC(=O)c1cc(S)c3ncc(C(=O)NCCc4nccs4)cc3c1)c1nnc(C)n1-2 [Example 11JQ7] | 0.051 to 0.5 | ≥ 71 | ≤ 0.05 | ≥ 71 | 0.051 to 0.5 | ≥ 71 | ≤ 0.05 | ≥ 71 | 80 | 3.2 | 1.8 | 95 | 3.4 | 2.9 | 98 | 1.2 | 1.2 | 99 | 1.9 | 1.9 | DC50 (Brd2 [7]; HEK293, Brd2, 4 h): 0.051 to 0.5 µM; Dmax (Brd2 [7]; HEK293, Brd2, 4 h): ≥ 71%; DC50 (Brd2 [7]; HeLa, Brd2, 4 h): ≥ 0.501 µM; Dmax (Brd2 [7]; HeLa, Brd2, 4 h): ≥ 71%; DC50 (Brd3 [8]; HEK293, Brd3, 4 h): ≥ 0.501 µM; Dmax (Brd3 [8]; HEK293, Brd3, 4 h): ≥ 71%; DC50 (Brd3 [8]; HeLa, Brd3, 4 h): 0.051 to 0.5 µM; Dmax (Brd3 [8]; HeLa, Brd3, 4 h): ≥ 71%
2 | Cc1sc2c(c1C)C(c1ccc(Cl)cc1)=N[C@@H](CC(=O)NCCOCCNC(=O)c1cc(SC(=O)c3ccccc3)c3ncc(C(=O)NCCc4nccs4)cc3c1)c1nnc(C)n1-2 [Example 11JQ15] | 0.051 to 0.5 | 51 to 70 | 0.051 to 0.5 | 51 to 70 | 0.051 to 0.5 | 51 to 70 | 0.051 to 0.5 | 51 to 70 | 50 | 5.7 | 1.1 | 70 | 2.6 | 1.5 | 90 | 1.1 | 0.8 | 90 | 1.2 | 0.9 | DC50 (Brd2 [7]; HEK293, Brd2, 4 h): 0.051 to 0.5 µM; Dmax (Brd2 [7]; HEK293, Brd2, 4 h): 26 to 50%; DC50 (Brd2 [7]; HeLa, Brd2, 4 h): 0.051 to 0.5 µM; Dmax (Brd2 [7]; HeLa, Brd2, 4 h): 26 to 50%; DC50 (Brd3 [8]; HEK293, Brd3, 4 h): 0.051 to 0.5 µM; Dmax (Brd3 [8]; HEK293, Brd3, 4 h): 26 to 50%; DC50 (Brd3 [8]; HeLa, Brd3, 4 h): 0.051 to 0.5 µM; Dmax (Brd3 [8]; HeLa, Brd3, 4 h): 26 to 50%
3 | Cc1sc2c(c1C)C(c1ccc(Cl)cc1)=N[C@@H](CC(=O)NCCCCNC(=O)c1cc(SC(=O)c3ccccc3)c3ncc(C(=O)NCCc4nccs4)cc3c1)c1nnc(C)n1-2 [Example 11JQ16] | ≤ 0.05 | ≥ 71 | 0.051 to 0.5 | ≥ 71 | ≤ 0.05 | ≥ 71 | 0.051 to 0.5 | ≥ 71 | 75 | 2.7 | 1.7 | 95 | 1.9 | 1.6 | 98 | 1.0 | 1.0 | 95 | 0.6 | 0.6 | DC50 (Brd2 [7]; HEK293, Brd2, 4 h): 0.051 to 0.5 µM; Dmax (Brd2 [7]; HEK293, Brd2, 4 h): ≥ 71%; DC50 (Brd2 [7]; HeLa, Brd2, 4 h): 0.051 to 0.5 µM; Dmax (Brd2 [7]; HeLa, Brd2, 4 h): 51 to 70%; DC50 (Brd3 [8]; HEK293, Brd3, 4 h): ≤ 0.05 µM; Dmax (Brd3 [8]; HEK293, Brd3, 4 h): ≥ 71%; DC50 (Brd3 [8]; HeLa, Brd3, 4 h): ≥ 0.501 µM; Dmax (Brd3 [8]; HeLa, Brd3, 4 h): 51 to 70%
